In patent EP0390111B1 (MERRELL DOW PHARMACEUTICALS INC., priority 1989, dated 1990):

How the values were obtained:
adenosine A-2 receptors = target: T1, adenosine A-2 receptors (Rattus norvegicus, UniProt P30543); assay: Test for affinity for brain adenosine A-2 receptors ([3H]NECA competition, striatal membranes); format: binding; details: rat brain striatum membranes, [3H]NECA 94 nM, 25°C, 60 minutes; read-out: A-2 Receptor Ki
T1 construct: from tissue; host or cells: rat brain striatum membranes (young male C-D strain rats, Charles River)
Procedure: Membranes for ligand binding are isolated from rat brain striatum. The tissue is homogenized in 20 vol. ice-cold 50 mM Tris-HCl buffer (pH 7.7) using a polytron (setting for 6 to 20 seconds). The homogenate is centrifuged at 50,000 x g for 10 minutes at 4°C. The pellet is again homogenized in a polytron in 20 vol. of buffer, and centrifuged as before. The pellet is finally resuspended in 40 vol. of 50 mM Tris-HCl (pH 7.7) per gram of original wet weight of tissue.
Incubations are carried out at 25°C for 60 minutes. Each tube is filtered through GF/B glass fiber filters using a vacuum. The filters are rinsed two times with 5 ml of the ice-cold buffer. […] The filters are counted by liquid scintillation spectrometry.
Specific binding of [3H]NECA is measured as the excess over blank runs in the presence of 100 µM 2-chloroadenosine. Total membrane-bound radioactivity is about 2.5% of that added to the test tubes. […] Specific binding to membranes is about 50% of the total bound.

adenosine A-1 receptor = target: T2, adenosine A-1 receptor (Rattus norvegicus, UniProt P25099); assay: biochemical
T2 sequence (P25099 1-326): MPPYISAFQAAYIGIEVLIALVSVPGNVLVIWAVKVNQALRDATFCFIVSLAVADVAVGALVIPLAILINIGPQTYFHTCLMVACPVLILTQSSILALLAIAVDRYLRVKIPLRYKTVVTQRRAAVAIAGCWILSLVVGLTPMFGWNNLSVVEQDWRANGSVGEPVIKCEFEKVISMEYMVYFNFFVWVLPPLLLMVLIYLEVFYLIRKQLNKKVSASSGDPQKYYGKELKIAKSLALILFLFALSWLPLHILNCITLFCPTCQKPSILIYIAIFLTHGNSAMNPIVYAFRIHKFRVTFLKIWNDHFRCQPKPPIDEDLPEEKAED

A-2 receptors = details: brain slice assay; cited from earlier work
adenosine receptors = details: in vivo; cited from earlier work

T1 sequence (P30543 whole entry): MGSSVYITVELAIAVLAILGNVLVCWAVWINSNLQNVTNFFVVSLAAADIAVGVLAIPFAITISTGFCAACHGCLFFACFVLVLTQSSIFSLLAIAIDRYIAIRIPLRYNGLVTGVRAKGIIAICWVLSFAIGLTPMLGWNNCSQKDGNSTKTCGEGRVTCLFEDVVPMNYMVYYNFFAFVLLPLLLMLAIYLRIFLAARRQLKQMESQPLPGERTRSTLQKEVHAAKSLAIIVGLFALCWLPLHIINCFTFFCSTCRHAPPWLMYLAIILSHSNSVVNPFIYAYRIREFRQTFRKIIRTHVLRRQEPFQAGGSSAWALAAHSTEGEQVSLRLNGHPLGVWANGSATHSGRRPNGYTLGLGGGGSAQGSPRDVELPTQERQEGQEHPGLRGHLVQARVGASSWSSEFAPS

Structure (SMILES) | Ki (adenosine A-2 receptors) [µM] | Ki (adenosine A-1 receptor) [µM] | Ki (A-2 receptors) [µM] | potency in antagonizing the effects of adenosine analogs on heart rate versus blood pressure (adenosine receptors)
C1=Nc2c(cnn2-c2ccccc2)C2=N[C@@H](Cc3ccccc3)CN12 [Compound 4, (S)-2,7-dihydro-7-phenyl-2-(phenylmethyl)-3H-imidazo[1,2-c]pyrazolo[4,3-e]pyrimidine] | > 199 | 10 | – | –
C1=Nc2c(ncn2-c2ccccc2)C2=N[C@@H](Cc3ccccc3)CN12 [Compound 5, (S)-7,8-dihydro-3-phenyl-8-(phenylmethyl)-3H-diimidazo[1,2-c:4',5'-e]pyrimidine] | > 199 | 44.6 | – | –
C1=Nc2nc[nH]c2C2=N[C@H](Cc3ccccc3)CN12 [Compound 9, (R)-7,8-dihydro-8-(phenylmethyl)-1H-diimidazo[1,2-c:4',5'-e]pyrimidine] | > 199 | 199 | – | –
C1=Nc2nc[nH]c2C2=N[C@@H](Cc3ccccc3)CN12 [Compound 10, (S)-7,8-dihydro-8-(phenylmethyl)-1H-diimidazo[1,2-c:4',5'-e]pyrimidine] | > 199 | 199 | – | –
CCCn1c(=O)c2[nH]c(-c3ccc(OCC(=O)NCCN)cc3)nc2n(CCC)c1=O [XAC] | – | – | 0.049 ± 0.017 | much more potent in antagonizing the effects of adenosine analogs on heart rate than on blood pressure
CCCn1c(=O)c2[nH]c(-c3ccc(OCC(=O)O)cc3)nc2n(CCC)c1=O [XCC] | – | – | 0.034 ± 0.013 | –

Now from value to compound, other results behind:

Ki (adenosine A-2 receptors) [µM] | Ki (adenosine A-1 receptor) [µM] | Structure (SMILES) | Ki (A-2 receptors) [µM] | potency in antagonizing the effects of adenosine analogs on heart rate versus blood pressure (adenosine receptors)
> 6.99 | 1.24 | CCCOC1=Nc2c(cnn2-c2ccccc2)C2=N[C@H](Cc3ccccc3)CN12 [Compound 1, (R)-2,7-dihydro-7-phenyl-2-(phenylmethyl)-5-propoxy-3H-imidazo[1,2-c]pyrazolo[4,3-e]pyrimidine] | – | –
0.508 | 2.68 | CCCOC1=Nc2c(cnn2-c2ccccc2)C2=N[C@@H](Cc3ccccc3)CN12 [Compound 2, (S)-2,7-dihydro-7-phenyl-2-(phenylmethyl)-5-propoxy-3H-imidazo[1,2-c]pyrazolo[4,3-e]pyrimidine] | – | –
25 | 1.9 | C1=Nc2c(cnn2-c2ccccc2)C2=N[C@H](Cc3ccccc3)CN12 [Compound 3, (R)-2,7-dihydro-7-phenyl-2-(phenylmethyl)-3H-imidazo[1,2-c]pyrazolo[4,3-e]pyrimidine] | – | –
100 | 8.4 | C1=Nc2c(ncn2-c2ccccc2)C2=N[C@H](Cc3ccccc3)CN12 [Compound 6, (R)-7,8-dihydro-3-phenyl-8-(phenylmethyl)-3H-diimidazo[1,2-c:4',5'-e]pyrimidine] | – | –
14.2 | 12.1 | CCCOC1=Nc2c(cnn2-c2ccccc2)C2=N[C@H](C)[C@@H](c3ccccc3)N12 [Compound 7, (2R-trans)-2,7-dihydro-2-methyl-3,7-diphenyl-5-propoxy-3H-imidazo[1,2-c]pyrazolo[4,3-e]pyrimidine] | – | –
10.6 | 4.5 | OC[C@H]1O[C@@H](n2cnc3c2N=CN2C[C@H](Cc4ccccc4)N=C32)[C@H](O)[C@@H]1O [Compound 13, (S)-7,8-dihydro-3-(β-D-ribofuranosyl)-8-(phenylmethyl)-3H-diimidazo[1,2-c:4',5'-e]pyrimidine] | – | –
46.8 | 65 | OC[C@H]1O[C@@H](n2cnc3c2N=CN2C[C@@H](Cc4ccccc4)N=C32)[C@H](O)[C@@H]1O [Compound 14, (R)-7,8-dihydro-3-(β-D-ribofuranosyl)-8-(phenylmethyl)-3H-diimidazo[1,2-c:4',5'-e]pyrimidine] | – | –
